Data taken from patent publication US11459387B2, “Anti-CD147 antibody” (DAIICHI SANKYO COMPANY, LIMITED, priority 2017, dated 2022).

Columns and labels:
[1] = system: human pancreatic line BxPC-3; assay: SMAD4-negative BxPC-3 pancreatic cancer-bearing model in BALB/c-nu mice; type: in vivo; conditions: gemcitabine 200 mg/kg via the tail vein 8, 15, 22 days after the inoculation
Description: The transcription factor, SMAD4, is known as one of the molecules important for activation of SMAD signaling (Zang, et al., Current Biology, 270-276, 1997). It is known that SMAD signaling is partially impaired due to genetic defects of SMAD4 in some pancreatic cancers (Hahn, et al., Science, 350-353, 1996). […] 2.5×10^6 cells of human pancreatic line BxPC-3 (ATCC, Cat. CRL-1687) were suspended in PBS containing […] (Corning Inc., Cat. 354234), and the suspension was inoculated subcutaneously into the axilla of 6 week-old female BALB/c-nu mouse (CAnN. Cg-Foxn1nu/CrlCrlj, purchased from CHARLES RIVER LABORATORIES JAPAN, INC). […] As a control drug, gemcitabine (Eli Lilly Japan K.K., Gemzar®) that is a therapeutic agent for pancreatic cancer was administered to mice bearing tumor via the tail vein at 200 mg/kg 8, 15, 22 days after the inoculation (n=5). The major axis and the minor axis of the inoculated tumor were measured twice a week using an electronic digital caliper (available from MITUTOYO CORPORATION) to calculate the tumor volume by the following formula. Tumor volume (mm^3)=½×minor axis (mm)×minor axis (mm)×major axis (mm)

[2] = system: gemcitabine-resistant MIA PaCa-2 tumors; assay: Gemcitabine-resistant MIA PaCa-2 pancreatic cancer tumor model in NOD-scid mice; type: in vivo, human
Description: The antitumor efficacy of the CD147 antibody in a gemcitabine-resistant pancreatic cancer tumor model was investigated. 5×10^6 cells of human pancreatic line MIA PaCa-2 were suspended in PBS containing 50% GFR-Matrigel (Corning Inc., Cat. 354230), and the suspension was inoculated subcutaneously into the axilla of 5 week-old female NOD-scid mice (NOD. CB17-Prkdc/J, CHARLES RIVER LABORATORIES JAPAN, INC). Gemcitabine (Eli Lilly Japan K.K.), which is a standard therapeutic agent for pancreatic cancer, was intraperitoneally administered at 400 mg/kg 6 days after the inoculation, and grouping of mice in which gemcitabine-resistant tumors were confirmed to grow was performed based on tumor size one week later. Gemcitabine was intraperitoneally administered to the control group at 400 mg/kg (n=5) 13 days (grouping date) and 20 days after the inoculation. […] The major axis and the minor axis of the inoculated tumor were measured twice a week using an electronic digital caliper (available from MITUTOYO CORPORATION) to calculate the tumor volume by the following formula. […]

[3] = system: human pancreatic line MIA PaCa-2; assay: MIA PaCa-2 pancreatic xenograft model in NOD-scid mice, humanized antibodies; type: in vivo; conditions: gemcitabine 400 mg/kg ip 7 and 14 days after the inoculation
Experimental: 5×10^6 cells of human pancreatic line MIA PaCa-2 were suspended in PBS containing 50% GFR-Matrigel (Corning Inc., Cat. 354230), and the suspension was inoculated subcutaneously into the axilla of 4 week-old female NOD-scid mice (NOD. CB17-Prkdc/J, purchased from CHARLES RIVER LABORATORIES JAPAN, INC). […] As a control drug, gemcitabine (purchased from Eli Lilly Japan K.K.) that is a standard therapeutic agent for pancreatic cancer was administered intraperitoneally to cancer-bearing mice at 400 mg/kg 7 and 14 days after the inoculation (n=5). The major axis and the minor axis of the inoculated tumor were measured twice a week using an electronic digital caliper (available from MITUTOYO CORPORATION) to calculate the tumor volume by the following formula.

[4] = system: human pancreatic line MIA PaCa-2; assay: MIA PaCa-2 model in Nude mice, humanized antibodies with different binding activities; type: in vivo; conditions: gemcitabine 400 mg/kg via the tail vein 3 and 10 days after the inoculation
Experimental: 5×10^6 cells of human pancreatic line MIA PaCa-2 were suspended in PBS containing 50% GFR-Matrigel (Corning Inc., Cat. 354230), and the suspension was inoculated subcutaneously into the axilla of 4-week old female Nude mice (BALB/c Slc-nu/nu, purchased from Japan SLC, Inc). […] As a control drug, gemcitabine (purchased from Eli Lilly Japan K.K.), which is a standard therapeutic agent for pancreatic cancer, was administered to cancer-bearing mice via the tail vein at 400 mg/kg 3 and 10 days after the inoculation (n=6). The major axis and the minor axis of the inoculated tumor were measured twice a week using an electronic digital caliper (available from MITUTOYO CORPORATION) to calculate the tumor volume by the following formula. Tumor volume (mm^3)=½×minor axis (mm)×minor axis (mm)×major axis (mm)

## Nc1ccn([C@@H]2O[C@H](CO)[C@@H](O)C2(F)F)c(=O)n1 [gemcitabine, reference compound]
[1]
  sensitivity of BxPC-3 tumor (in words): resistant
[2]; gemcitabine 400 mg/kg ip 6, 13 and 20 days after the inoculation, 28 days after the inoculation
  average tumor size: 1269 mm^3
[2]; gemcitabine 400 mg/kg ip alone
  regressing tumors (in words): no regressing tumors were observed
[3]
  tumor disappearance (in words): no tumor disappearance was recognized
[3]; NOD-scid mice
  tumor growth inhibition rate: 71%
[4]
  tumor growth inhibition rate: 66%
